Source: PMC7531004, “Discovery of gramicidin A analogues with altered activities by multidimensional screening of a one-bead-one-compound library” (Nature Communications, 2020)
Several values for one entry are separate records, joined by “and”; a condition that tells them apart may be missing. Equal values may be shown once. Read-outs that look alike come from different tables or passages of the source. Where a SMILES comes first, the peptide text is derived from it. [ ]: non-standard residue; d: D form. The star is where a group is joined. NHCH2CH2OH = OCCN*; For = O=C*

Key:
[1] = Membrane disruption assay of purified peptides (carboxyfluorescein leakage); assay type: biochemical; design: key: % lysis; Triton X-100 = 100%, DMSO = 0%; conditions: three replicate lines
Description: Membrane disruption assay of purified peptides. 5(6)-Carboxyfluorescein (CF)-encapsulated large […]
through Nuclepore polycarbonate filters mounted in the mini-extruder apparatus. A solution of egg yolk phosphatidylcholine (EYPC, 22.0 mg, 28.9 µmol) in CHCl3 (225 µL) and egg yolk phosphatidylglycerol (1.2 0 […]
mM HEPES, 100 mM NaCl, 20 mM CF) by sonication. After five -times freeze-thaw cycles, the lipid […]
concentration of the resultant CF -encapsulated LUV suspension was deduced from the phosphatidylcholine concentration determined by using Phospholipid C -Test Wako. The lipid concentration of the LUV […]
as 5-fold serial dilution. The solution of peptide (2.0 µL) and the CF-encapsulated LUV suspension (200 […]
The resultant suspension was incubated at room temperature for 30 min. The fluorescence (Ex. 490 nm/Em. 517 nm) of each well was measured on Gemini EM microplate reader. Triton X-100/H2O (5/95, 3.0 µL), DMSO (2.0 µL), and the LUV suspension were mixed in each plate to determine 100% lysis. […]
was used to determine 0% lysis. The membrane disruption activities of tested peptides ( I) were normalized against 100% lysis by Triton X-100 (Imax) and 0% lysis by DMSO ( I0) according to Supplementary Equation 2 , where Ix is the fluorescence intensity.
The membrane disruption activities of the purified peptides were plotted as means of three replicates (Supplementary Figure 1).

[2] = system: MSSA1 (methicillin-susceptible Staphylococcus aureus); assay type: cell-based
Description: (§1) Evaluation of antibacterial spectra of purified peptides. The MIC assay was performed according to the Clinical and Laboratory Standards Institute protocols. The antibacterial activities of the purified peptides A1, B01–B04, B11–B13, B21, and B22 were measured using the broth microdilution method. 6 Serial dilutions of the peptides were prepared in cation adjusted Mueller Hinton Broth. Each dilution (100 µL) was dispensed to each well of the round-bottom plate to obtain final concentrations ranging from 64 µg/mL to 0.00024 µg/mL. Bacteria were grown at 37 °C overnight on Tryptic Soy Broth or Mueller Hinton Broth agar plates.
(§2) The bacterial colonies were suspended in 0.9% saline to obtain OD 625 of 0.08–0.13 using a spectrophotometer UV-1280 (Shimadzu). The resultant suspension was diluted with cation adjusted Mueller Hinton Broth (1/20). The resultant mixture (10 .0 µL) was inoculated to each well of the plates (approximately 5 × 10^4 CFU/well), mixed, and incubated at 37 °C for 18–24 h. The MIC value was determined as the minimum concentration that inhibited growth of bacteria. For Streptococcus species, cation adjusted Mueller Hinton Broth supplemented with 5% laked horse blood was used. […]

[3] = Description: Second, we examined the cytotoxicity toward mammalian cancer cells and hemolytic activity of 1. […] Hemolytic activity was evaluated by monitoring hemoglobin leakage from rabbit red blood cells as a consequence of membrane damage. The concentration of 1 required to cause 10% hemoglobin leakage (HC10) was 160 nM. Thus, the P388 cytotoxicity of 1 was 28-fold more sensitive than its hemolytic activity.
Mammalian cytotoxicity assay of purified peptides.
B22 was diluted with the growth medium with 2% DMSO to various concentrations as 5-fold serial dilution.
The collected cells were resuspended into
the growth medium at 2 × 10^4 cells/mL. Aliquots of the former medium (2% DMSO, 100 µL) containing
peptides and the latter medium containing P388 cells (100 µL) were mixed in a 96-well cell culture plate
(TR5003, TrueLine). The final concentration of P388 cells and DMSO were 1 × 10^4 cells/mL and 1%,
respectively. […]
were determined by WST -1 assay. A solution of 1-methoxy PMS and WST-1 in the growth medium
(1-methoxy PMS 0.70 mg/mL in Milli-Q/WST-1 3.6 mg/mL in pH 7.4 HEPES buffer = 1/9) was added to
each well of the plate (20.0 µL/well). The cells were incubated for 4 h under atmosphere of 5% CO 2 at
37 °C. The absorbance of each well at 415 nm was measured using a Benchmark microplate reader
(Bio-Rad) or Thermo Scientifi c Multiskan GO (Thermo Fisher Scientific). The cytotoxicities of the purified
peptides were evaluated as IC 50 (nM) by means of three replicates. Sigmoidal curve fittings were performed

[4] = system: Streptococcus agalactiae JCM5671; conditions: for Antibacterial activity MIC: JCM5671; for antibacterial activity/MIC: S. agalactiae
Description: (§3) Third, 1 was subjected to five pathogenic Gram-positive bacteria.
as §1, §2

[5] = system: Streptococcus pyogenes SSI-9; conditions: for antibacterial activity/MIC: S. pyogenes; for Antibacterial activity MIC: SSI-9
Description: as §3, §1, §2

[6] = system: Listeria monocytogenes 10403S; conditions: for Antibacterial activity MIC: 10403S; for antibacterial activity/MIC: L. monocytogenes
Description: as §3, §1, §2

[7] = system: Enterococcus faecalis JCM5803; conditions: for antibacterial activity/MIC: E. faecalis; for Antibacterial activity MIC: JCM5803
Description: as §3, §1, §2

[8] = system: Streptococcus pneumoniae NBRC 102642; conditions: for Antibacterial activity MIC: NBRC 102642; for antibacterial activity/MIC: S. pneumoniae
Description: as §3, §1, §2

[9] = IC50, mammalian cytotoxicity assay

antibacterial activity/MIC [2] [µg/mL]	Antibacterial activity MIC [4] [µM]	antibacterial activity/MIC [4] [µg/mL]	antibacterial activity/MIC [5] [µg/mL]	Antibacterial activity MIC [5] [µM]	antibacterial activity/MIC [6] [µg/mL]	antibacterial activity/MIC [7] [µg/mL]	Antibacterial activity MIC [7] [µM]	Compound	Supplementary Figure 1 dose-response value ([1]; concentration 0.000512 nM)	Supplementary Figure 1 dose-response value ([1]; concentration 0.00256 nM)	Supplementary Figure 1 dose-response value ([1]; concentration 0.0128 nM)	Supplementary Figure 1 dose-response value ([1]; concentration 0.064 nM)	Supplementary Figure 1 dose-response value ([1]; concentration 0.32 nM)	Supplementary Figure 1 dose-response value ([1]; concentration 1.6 nM)	Supplementary Figure 1 dose-response value ([1]; concentration 8 nM)	Supplementary Figure 1 dose-response value ([1]; concentration 40 nM)	Supplementary Figure 1 dose-response value ([1]; concentration 200 nM)	Supplementary Figure 1 dose-response value ([1]; concentration 1000 nM)	Supplementary Figure 1 dose-response value ([1]; concentration 5000 nM)	IC50 [3, 9] [nM]	also measured
32	4.3	8	0.063	0.034	8	1	0.54	CC(C)C[C@@H](NC(=O)[C@H](C)NC(=O)CNC(=O)[C@@H](NC=O)C(C)C)C(=O)N[C@@H](C)C(=O)N[C@@H](C(=O)N[C@H](C(=O)N[C@@H](C(=O)N[C@@H](Cc1c[nH]c2ccccc12)C(=O)N[C@@H](C(=O)N[C@@H](Cc1c[nH]c2ccccc12)C(=O)N[C@H](CC(C)C)C(=O)N[C@@H](Cc1c[nH]c2ccccc12)C(=O)N[C@@H](C(=O)N[C@@H](Cc1c[nH]c2ccccc12)C(=O)NCCO)C(C)C)C(C)C)C(C)C)C(C)C)C(C)C [B04] (For-VGA[dL]A[dV]V[dV]W[dV]W[dL]W[dV]W-NHCH2CH2OH)	5.512 and 4.537 and 0.4455	-0.04863 and -3.2 and 2.187	9.24 and 8.431 and 0.7987	3.3 and 2.841 and 2.346	3.831 and -2.375 and 0.08227	3.92 and -4.965 and 7.615	4.496 and 6.302 and 12.8514	10.2052 and 8.412 and 22.8437	31.7359 and 28.6719 and 15.6803	31.9617 and 33.3362 and 31.6759	49.4317 and 48.1889 and 46.8231	34.3	IC50 ([3]; Cytotoxicity IC50): 41 nM; IC50 ([3]; cytotoxicity against P388 cells/IC50): 40.6 ± 5.95 nM; Antibacterial activity MIC [6]: 4.3 µM; Antibacterial activity MIC [8]: 0.0084 µM; antibacterial activity/MIC [8]: 0.016 µg/mL
8	4.2	8	1	0.53	2	4	2.1	CC(C)C[C@@H](NC(=O)[C@H](C)NC(=O)CNC(=O)[C@@H](NC=O)C(C)C)C(=O)N[C@@H](C)C(=O)N[C@@H](C(=O)N[C@H](C(=O)N[C@@H](C(=O)N[C@@H](Cc1c[nH]c2ccccc12)C(=O)N[C@H](CC(C)C)C(=O)N[C@@H](Cc1c[nH]c2ccccc12)C(=O)N[C@H](CC(C)C)C(=O)N[C@@H](Cc1c[nH]c2ccccc12)C(=O)N[C@H](CC(C)C)C(=O)N[C@@H](Cc1c[nH]c2ccccc12)C(=O)NCCO)[C@H](C)O)C(C)C)C(C)C [B13] (For-VGA[dL]A[dV]V[dT]W[dL]W[dL]W[dL]W-NHCH2CH2OH)	12.6222 and 8.681 and 14.1878	5.0387 and -8.856 and 0.4118	17.1111 and 10.8226 and 6.743	2.158 and 0.4656 and 8.156	0.4983 and 9.035 and 4.354	8.628 and -5.518 and 5.634	16.7483 and 16.868 and 17.3839	8.5256 and 14.4302 and 19.7817	29.195 and 23.7339 and 11.0358	32.784 and 37.4398 and 33.6736	66.9777 and 54.6664 and 50.7322	> 1000	Antibacterial activity MIC [8]: 0.033 µM; antibacterial activity/MIC [8]: 0.063 µg/mL
8	0.54	1	0.015	0.008	2	0.25	0.13	CC(C)C[C@@H](NC(=O)[C@H](Cc1c[nH]c2ccccc12)NC(=O)[C@@H](CC(C)C)NC(=O)[C@H](Cc1c[nH]c2ccccc12)NC(=O)[C@@H](CC(C)C)NC(=O)[C@H](Cc1c[nH]c2ccccc12)NC(=O)[C@H](NC(=O)[C@@H](NC(=O)[C@H](NC(=O)[C@H](C)NC(=O)[C@H](NC(=O)[C@H](C)NC(=O)CNC(=O)[C@@H](NC=O)C(C)C)C(C)C)C(C)C)C(C)C)C(C)C)C(=O)N[C@@H](Cc1c[nH]c2ccccc12)C(=O)NCCO [A1] (For-VGA[dV]A[dV]V[dV]W[dL]W[dL]W[dL]W-NHCH2CH2OH)	15.596 and 11.1897 and 18.8476	19.0421 and 18.9023 and 11.8141	18.8248 and 18.451 and 13.318	5.787 and 7.036 and 10.8676	6.642 and 18.6722 and 17.2971	5.416 and 5.449 and 6.466	18.3076 and 19.5293 and 5.647	20.3219 and 7.57 and 17.0093	24.2624 and 22.7393 and 19.0922	20.1834 and 27.4358 and 26.1069	74.0004 and 66.4045 and 47.3037	3.52	IC50 ([3]; Cytotoxicity IC50): 4.1 nM; Antibacterial activity MIC [6]: 1.1 µM; Antibacterial activity MIC [8]: 0.001 µM; antibacterial activity/MIC [8]: 0.0019 µg/mL
